# Assay results from ChEMBL document CHEMBL2440031, “Benzochalcones bearing pyrazoline moieties show anti-colorectal cancer activities and selective inhibitory effects on aurora kinases” (Bioorg Med Chem, 2013).
# Activity calls are given as the source filed them. The calls are words filed in the database; no cut-off is given here.
# Tests used:
# HCT-116 [1] = assay: Cytotoxicity against human HCT116 cells after 7 days using crystal violet staining by clonogenic survival assay; assay type: functional, cell-based; settings: HCT-116, 168 h
# HCT-116 [2] = assay: Cell cycle arrest in human HCT116 cells assessed as accumulation at sub-G1 phase accumulation at 40 uM after 12 to 48 hrs using propidium iodide staining by flow cytometric analysis relative to total cells; assay type: functional
# HCT-116 [3] = assay: Cell cycle arrest in human HCT116 cells assessed as decrease of G2/M phase accumulation at 40 uM after 12 to 48 hrs using propidium iodide staining by flow cytometric analysis; assay type: functional, cell-based
# HCT-116 [4] = assay: Cell cycle arrest in human HCT116 cells assessed as decrease of S phase accumulation at 40 uM after 12 to 48 hrs using propidium iodide staining by flow cytometric analysis; assay type: functional, cell-based
# HCT-116 [5] = assay: Cell cycle arrest in human HCT116 cells assessed as increase of G1 phase accumulation at 40 uM after 12 to 48 hrs using propidium iodide staining by flow cytometric analysis; assay type: functional, cell-based
# HCT-116 [6] = assay: Effect on cyclin-A1 expression in human HCT116 cells at 40 uM after 12 to 48 hrs by Western blot analysis; assay type: functional, cell-based
# HCT-116 [7] = assay: Increase of cyclin-D1 expression in human HCT116 cells at 40 uM after 24 to 48 hrs by Western blot analysis; assay type: functional, cell-based
# HCT-116 [8] = assay: Increase of cyclin-D1 expression in human HCT116 cells at 40 uM after 12 hrs by Western blot analysis; assay type: functional, cell-based
# HCT-116 [9] = assay: Decrease of cyclin-B1 expression in human HCT116 cells at 40 uM after 24 hrs by Western blot analysis; assay type: functional, cell-based
# HCT-116 [10] = assay: Increase of CDK expression in human HCT116 cells at 40 uM by Western blot analysis; assay type: functional, cell-based; settings: TDE = time-dependent effect
# HCT-116 [11] = assay: Increase of p21 expression in human HCT116 cells at 40 uM by Western blot analysis; assay type: functional, cell-based; settings: TDE = time-dependent effect
# HCT-116 [12] = assay: Cytotoxicity against human HCT116 cells up to 40 uM by WST-8 assay; assay type: functional, cell-based; settings: TDE = time-dependent effect
# HCT-116 [13] = assay: Cytotoxicity against human HCT116 cells after 24 to 48 hrs by WST-8 assay; assay type: functional, cell-based
Compound,IC50 (HCT-116 [1]) [µM],other results
COc1ccc(C2CC(c3ccc4ccccc4c3O)=NN2)cc1 (stereo not drawn),13.2,
COc1ccc(C2CC(c3ccc4ccccc4c3O)=NN2)c(OC)c1 (stereo not drawn),8.8,
COc1cc(OC)cc(C2CC(c3c(O)ccc4ccccc34)=NN2)c1 (stereo not drawn),5.7,
COc1cccc(C2CC(c3c(O)ccc4ccccc34)=NN2)c1OC (stereo not drawn),6.3,
COc1cc(OC)c(C2CC(c3c(O)ccc4ccccc34)=NN2c2ccc(Cl)cc2)cc1OC (stereo not drawn),7.8,
COc1ccc(C2CC(c3c(O)ccc4ccccc34)=NN2)c(OC)c1 (stereo not drawn),2.4,Activity (HCT-116 [2]): 21.3%; Activity (HCT-116 [3]): Active; Activity (HCT-116 [4]): Active; Activity (HCT-116 [5]): Active; Activity (HCT-116 [6]): Active; Activity (HCT-116 [7]): inactive; Activity (HCT-116 [8]): Active; Activity (HCT-116 [9]): Active; Activity (HCT-116 [10]): tde; Activity (HCT-116 [11]): tde; Activity (HCT-116 [12]): tde; Activity (HCT-116 [13]): Dose-dependent effect
COc1cccc(C2CC(c3ccc4ccccc4c3O)=NN2)c1 (stereo not drawn),20.8,
COc1cccc(C2CC(c3ccc4ccccc4c3O)=NN2)c1OC (stereo not drawn),15.2,
COc1ccc(C2CC(c3c(O)ccc4ccccc34)=NN2c2ccc(Cl)cc2)cc1 (stereo not drawn),9.8,
COc1cc(OC)c(C2CC(c3ccc4ccccc4c3O)=NN2)c(OC)c1 (stereo not drawn),32.5,
COc1cc(OC)c(C2CC(c3ccc4ccccc4c3O)=NN2)cc1OC (stereo not drawn),9,
COc1cc(OC)cc(C2CC(c3ccc4ccccc4c3O)=NN2)c1 (stereo not drawn),4.7,
COc1ccc(C2CC(c3ccc4ccccc4c3O)=NN2)c(OC)c1OC (stereo not drawn),11.3,
COc1ccc(C2CC(c3c(O)ccc4ccccc34)=NN2)cc1 (stereo not drawn),7.8,
COc1ccccc1C1CC(c2ccc3ccccc3c2O)=NN1 (stereo not drawn),17.4,
COc1ccc(C2CC(c3c(O)ccc4ccccc34)=NN2c2ccc(Cl)cc2)c(OC)c1 (stereo not drawn),5.4,
